Columns and labels:
[1] = system: Brachiaria platyphylla, Digitaria spp, Echinochloa spp, Eleusine indica, Leptochloa spp and Setaria spp; assay: Weeds effectively treated to date: grasses; format: in vivo
[2] = system: Cyperus difformis, Cyperus iria, Cyperus serotinus, Eleocharis acicularis, Eleocharis kuroguwai, Fimbristylis spp, Scirpus hotarui and Scirpus spp; assay: Weeds effectively treated to date: sedges; format: in vivo
[3] = system: Ammannia spp, Amaranthus retroflexus, Elatine triandra, Jussiaea decurrens, Lindernia pyxidaria, Rotala Sphenoclea zeylanica and Partulaca oleracea; assay: Weeds effectively treated to date: dicotyledonous broadleaf weeds; format: in vivo
Cc (Commelina communis) = assay: Example 7 greenhouse preemergence activity; format: in vivo
Experimental: In a further comparative study of the preemergence activity of Herbicides A and B, a variety of weeds and upland direct-seeded rice were tested under greenhouse conditions. The present invention is not concerned with the use of Herbicide A in direct-seeded rice. The primary purpose of the experimental work in this example is to compare relative herbicidal activity of Herbicides A and B against the weeds shown in Table 7; most of these weeds were not available for tests with transplanted rice. Although the relative selectivity of these herbicides in upland rice is also evident, that aspect of the tests is more or less incidental to the purpose of this example.
In this example, rice seeds and seeds of the weeds shown in Table 7 were sown in Ray silt loam soil at a depth of 0.5 inch (1.27 cm) in containers for the soil in a greenhouse. Herbicides A and B were applied to the surface of the soil at a spray volume equivalent to 20 gals/acre (187.1 liters/hectare), followed by 0.5 in (1.27 cm) of overhead irrigation. Temperature and relative humidity in the greenhouse were on the order of 85°F (29°C) and 75%, respectively. Observations were made at 21-28 days after seeding.
In Table 7 are shown the average rates of herbicide required to cause a growth reduction of 85% of the weeds ("GR85 "), and the average rate of herbicide required to cause a growth reduction of 15% ("GR15 ") of the rice plants (Oryza sativa, "Os", variety Bluebelle).

[4] = system: direct-seeded rice plants; conditions: 1.0 lb/ac and 0.25 lb/ac; '620 and '945 Table I; cited from earlier work
[5] = system: Alisma canaliculatum, Aneilema japonica, Monochoria vaginalis, Commelina communis; assay: Weeds effectively treated to date: monocotyledonous broadleaf weeds; format: in vivo
[6] = system: Ec (Echinochloa crusgalli); assay: Example 8 residual weed control, JAAPR, Japan; format: in vivo; conditions: Table 8 (Ec and Ri)
Experimental: This example describes the results of tests conducted at the JAAPR Laboratory in Japan to determine the comparative residual effect of Herbicide A vis-a-vis that of commercial rice herbicides in Japan.
In the tests according to this example, the test weed species Echinochloa crusgalli (Ec) and Rotala indica (Ri), were grown in clay loam soil having 2.3% organic matter and a percolation rate of 3 cm/day for 2 days. Herbicide A was applied to the weeds at an expected use rate of about 0.67-1.34 lbs/ac (0.75-1.5 kgs/ha) and the commercial rice herbicides, whose active ingredients are identified below, were applied at their indicated expected use rates: […]

[7] = system: weeds in transplanted rice; assay: Example 6 overall; format: in vivo
Experimental: In this example, the efficacy of Herbicide A is presented for a variety of weeds in the presence of ordinary and infant transplant rice. In this example, tests were conducted at the said JAAPR Lab at different times of the year. "Early season" transplants were made in April and "Normal season" transplants were made in July. The size of the transplants at the respective seasons were: Season Seedling Type Plant Height (cm) Leaf Stage ______________________________________ Early Ordinary 16.5 4.5 Early Infant 9.1 2.4 Normal Ordinary 41.7 5.3 Normal Infant 14.7 1.9 ______________________________________
Duplicate treatments were used. At the time of application of the herbicide, the status of the grass (EC) was as follows: […]

CCCCOCN(C(=O)CCl)c1c(C)cccc1C(C)(C)C [Herbicide A, n-(butoxymethyl)-6'-tert-butyl-2-chloro-o-acetotoluidide]
effectively treated grasses [1]: effectively treated | effectively treated sedges [2]: effectively treated | effectively treated dicotyledonous broadleaf weeds [3]: effectively treated | resistance of Cc (Cc (Commelina communis)): resistant | phytotoxicity to direct-seeded rice [4]: severe phytotoxicity | effectively treated monocotyledonous broadleaf weeds [5]: effectively treated | residual activity [6]: over 30 days | weed control in words ([7]; all weeds except Sagittaria (Sp)): very effective | toxicity to weeds and rice, normal vs early season ([7]; normal season vs early season): slightly more toxic to both weeds and rice | efficacious application period ([7]; relative to transplanting): from 2 days before transplanting to 12 DAT

Reference: patent US3955959A, “Herbicide for use in transplanted rice” (priority 1974, dated 1976)
